Test results as given in patent publication US4760089A, “Irreversible dopamine-β-hydroxylase inhibitors” (SmithKline Beckman Corporation, priority 1985, dated 1988).
Counter-ions that a name gives are not always drawn. Like-named read-outs stand apart in the source and are kept apart here.

Columns and labels:
[1] = tested on: peripheral dopamine (DA) and norepinephrine (NE) levels; assay: In vivo effect on peripheral dopamine and norepinephrine levels; design: species or system spontaneously hypertensive rats; details: twice; for DA / NE: per gram of tissue, about 2 hours after second dose
Method: One of the 2-cyano-2-phenethylamine compounds also was tested for its effect in vivo on peripheral dopamine (DA) and norepinephrine (NE) levels substantially by the procedure of DaPrada and Zurcher, Life Sciences, 19, 1161, (1976). Groups of five spontaneously hypertensive rats were dosed orally, twice, the second dose approximately 18 hours after the first, and were sacrificed about 2 hours after the second dose.

[2] = target: T1, dopamine-β-hydroxylase (DBH) (Bos taurus, UniProt P15101); assay: DBH enzyme inhibition kinetics, conversion of tyramine to octopamine; assay type: biochemical; details: several inhibitor concentrations
T1 sequence (P15101 1-610): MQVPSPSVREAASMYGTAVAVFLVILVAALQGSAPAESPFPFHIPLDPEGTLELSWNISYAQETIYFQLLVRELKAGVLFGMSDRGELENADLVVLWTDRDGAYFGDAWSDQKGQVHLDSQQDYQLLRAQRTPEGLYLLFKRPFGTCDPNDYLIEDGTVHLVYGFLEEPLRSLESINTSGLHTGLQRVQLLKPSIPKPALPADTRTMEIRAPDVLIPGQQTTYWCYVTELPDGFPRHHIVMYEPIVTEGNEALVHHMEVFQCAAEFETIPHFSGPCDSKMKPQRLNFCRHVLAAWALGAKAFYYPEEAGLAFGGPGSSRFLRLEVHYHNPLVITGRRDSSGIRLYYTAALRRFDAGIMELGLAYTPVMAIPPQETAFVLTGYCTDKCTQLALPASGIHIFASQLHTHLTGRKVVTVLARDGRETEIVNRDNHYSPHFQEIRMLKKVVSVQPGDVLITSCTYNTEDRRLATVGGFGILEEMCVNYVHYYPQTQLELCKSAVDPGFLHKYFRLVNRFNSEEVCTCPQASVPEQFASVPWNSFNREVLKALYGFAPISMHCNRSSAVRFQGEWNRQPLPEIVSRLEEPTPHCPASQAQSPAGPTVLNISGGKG
Method: (§1) Presently invented also are methods of producing DBH inhibition in mammals, including humans, by administering an effective amount of 2-cyano-2-phenethylamine or a 2-cyano-2-(hydroxyphenyl)ethylamine compound. […] DBH activity was assayed by a standard procedure for measuring the conversion of tyramine to octopamine in the presence of DBH. J. J. Pisano, et al., Biochim. Biophy. Acta, 43, 566-68 (1960). Octopamine was assayed following sodium periodate oxidation to p-hydroxybenzaldehyde by measuring spectrophotometric absorbance at 330 nm.
Further, the changing apparent rate constant and the unchanging maxiumum reaction rate indicate that the compounds useful in the presently invented method initially are competitive blockers of substrate-enzyme interactions.

[3] = target: T1, dopamine-β-hydroxylase (DBH); assay: Dialysis of enzyme-inhibitor complexes to test reversibility of DBH inhibition; assay type: biochemical; details: for activity at 1000 µM: tyramine alone = 100%; for Amount of Product Formed Pre-Dialysis: approx. 3 hour incubation with DBH; for Amount of Product Formed Post-Dialysis: dialyzed overnight, pH 5.5 acetate buffer
Method: as §1
Dialysis of enzyme-inhibitor complexes was selected as the approach for testing the reversibility of the inhibition produced by these compounds. A known, reversible DBH inhibitor, fusaric acid, was utilized as a reference standard. Following approximate 3 hour incubation of DBH with one of the inhibitors, the rate of enzymatic conversion of tyramine to octopamine was measured by the standard procedure used in the enzyme kinetic analyses. Thereafter, the enzyme previously incubated with inhibitor was placed in a standard dialysis bag and dialyzed overnight against four changes of pH 5.5 acetate buffer. Following dialysis, the rate of enzymatic conversion of tyramine to octopamine again was measured.

[4] = tested on: spontaneously hypertensive rats; assay: Mean arterial blood pressure in spontaneously hypertensive rats; assay type: in vivo; details: 100 mg/kg intraperitoneally
Method: Further, spontaneously hypertensive rats were dosed with a suspension or solution of 2-cyano-2-phenethylamine hydrochloride at a dose of 100 mg/kg intraperitoneally, and mean arterial blood pressure was monitored for 260 minutes using indwelling cannulae positioned in the tail arteries. Approximate thirty percent reductions in blood pressure were observed thirty to forty minutes following administration of this compound. At 260 minutes after administration of this compound, blood pressure remained reduced by approximately twenty percent when compared to vehicle-treated controls.

[5] = Teresawa et al., Japan. Cir. J. 35, 339 (1971); cited from earlier work
DBH = details: Runti et al., Il Farmaco Ed. Sci. 36, 260 (1980); cited from earlier work
[6] = Tyramine 10^-2 M and inhibitor 10^-3 M
[7] = Tyramine 10^-2 M and Fusaric Acid 10^-4 M

For N#CC(CN)c1ccccc1 (stereo not shown) [2-cyano-2-phenethylamine hydrochloride], the “DA/NE Ratio” value ([1]; Experiment 1, 100 mg/kg orally) was 0.0716 ± 0.004, the DA ([1]; Experiment 1, 100 mg/kg orally) was 0.571 µg/g and the NE ([1]; Experiment 1, 100 mg/kg orally) was 7.96 µg/g. For the same molecule, the “DA/NE Ratio” value ([1]; Experiment 2, 100 mg/kg orally) was 0.0628 ± 0.0013, the DA ([1]; Experiment 2, 100 mg/kg orally) was 0.408 µg/g and the NE ([1]; Experiment 2, 100 mg/kg orally) was 6.47 µg/g. The “DBH activity versus inhibitor concentration (FIG. 1, double-reciprocal plot)” value [2] was “reductions in DBH activity were related directly to increasing 2-cyano-2-phenethylamine hydrochloride concentrations”, the activity at 1000 µM ([3]; 3 h, Tyramine 10^-2 M and inhibitor 10^-3 M, read-out: DBH Activity Pre-Dialysis) was 8% and the “Amount of Product Formed Pre-Dialysis” value [3, 6] was 15.7 nM. For the same molecule, the “Amount of Product Formed Post-Dialysis” value [3, 6] was 10.5 nM, the activity at 1000 µM ([3]; Tyramine 10^-2 M and inhibitor 10^-3 M, read-out: DBH Activity Post-Dialysis) was 5.5% and the “reduction in mean arterial blood pressure compared to vehicle-treated controls” value ([4]; at 260 minutes after administration) was “approximately twenty”. The “reduction in mean arterial blood pressure” value ([4]; thirty to forty minutes following administration) was “thirty”.
With CCCCc1ccc(C(=O)O)nc1 [Fusaric Acid, reference compound] the “DA/NE Ratio” value ([1]; Experiment 1, 50 mg/kg orally) was 0.0994 ± 0.007, the DA ([1]; Experiment 1, 50 mg/kg orally) was 0.819 µg/g and the NE ([1]; Experiment 1, 50 mg/kg orally) was 8.31 µg/g. The “DA/NE Ratio” value ([1]; Experiment 2, 50 mg/kg orally) was 0.112 ± 0.0055, the DA ([1]; Experiment 2, 50 mg/kg orally) was 0.615 µg/g and the NE ([1]; Experiment 2, 50 mg/kg orally) was 5.82 µg/g. For the same molecule, the toxic effect [5] was “hepatotoxic”, the activity at 100 µM ([3]; 3 h, read-out: DBH Activity Pre-Dialysis) was 2% and the “Amount of Product Formed Pre-Dialysis” value [3, 7] was 4.0 nM. For the same molecule, the “Amount of Product Formed Post-Dialysis” value [3, 7] was 169.0 nM and the activity at 100 µM ([3]; read-out: DBH Activity Post-Dialysis) was 89.2%.
For phenylpicolinic acid, the “DBH inhibitory activity relative to fusaric acid” value (DBH) is given as “twice the inhibitory activity of fusaric acid”.
